Like-named read-outs stand apart in the source and are kept apart here.
Tests used:
[1] = molecular target: EGFR (Homo sapiens (Human), UniProt P00533); test: ErbB enzyme assay (CisBio HTRF KinEASE-TK), Assay 3; format: biochemical
In short: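 Kinase + 250 nM biotin TK-substrate, 1 mM ATP, cpd (3-fold dil.), HEPES pH 7.4/10 mM MgCl2/0.01% Triton/2% DMSO; 30 min 22 °C. Quench w/ Sa-XL665 + TK-Ab-Cryptate, 1 h, HTRF. IC50 = 50 POC on 4PL fit.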

[2] = molecular target: EGFR wild type (EGFR WT) (Homo sapiens (Human), UniProt P00533); test: Cellular phosphorylation assay, EGF-stimulated EGFR phosphorylation in engineered NIH 3T3 cells, Phospho-EGFR DuoSet IC ELISA, Assay 5; format: cell-based
In short: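 NIH 3T3 cells expressing EGFR WT (20,000/well, attached overnight) were exposed to serially diluted compound for 1 h at 37 °C, then stimulated with 100 ng/ml rEGF for 10 min. Phospho-EGFR in lysates measured by sandwich ELISA optical density; IC50 from curves.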

[3] = molecular target: ErbB2 insYVMA (HER2-YVMA, SEQ ID NO: 2) (Homo sapiens, UniProt P04626, INS775YVMA/P1170A); test: biochemical; settings: ErbB2 insYVMA enzyme assay
[4] = molecular target: ErbB2 WT (Homo sapiens (Human), UniProt P04626); test: ErbB enzyme assay (CisBio HTRF KinEASE-TK), Assay 2; format: biochemical
In short: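 ErbB2 phosphorylates 250 nM biotin-TK substrate at 1 mM ATP in 25 mM HEPES pH 7.4, 10 mM MgCl2, 0.01% Triton X-100 and 2% DMSO, for 30 min at 22 °C. Product is detected by HTRF with Sa-XL665 and TK-Ab-Cryptate. Percent of control is set by DMSO-only wells and pre-quenched wells.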

[5] = molecular target: MDR1 (P-gp) (Homo sapiens (Human), UniProt P08183); test: MDR1 transfected MDCKII canine Mdr1 knockout permeability/efflux, Assay 7; settings: dog, MDCK-MDR1
Protocol: Both MDR1 transfected LLC-PK1 (Assay 6) and MDR1 transfected MDCKII canine Mdr1 knockout cells (Assay 7) were cultured and plated according to manufacturer's recommendations with the exception that the passage media for the MDR1 transfected LLC-PK1 cell line contained only 2% fetal bovine serum so as to extend passage time out to seven days.
(§1) Both positive and negative controls were used to assess functionality of P-gp or BCRP efflux in the assays. Stock solutions for assay controls and the test article were prepared in DMSO for final test concentration of 1 μM. Final organic concentration in the assay was 1%. All dosing solutions contained 10 μM lucifer yellow to monitor MDCKII cell monolayer integrity.
(§2) For the apical to basolateral determination (A to B), 75 μL of the test article in transport buffer were added to the apical side of the individual transwells and 250 μL of basolateral media, without compound or lucifer yellow, were added to each well. For the basolateral to apical determination (B to A), 250 μL of test article in transport buffer were added to each well and 75 μL transport buffer, without compound or lucifer yellow, were added to each transwell. All tests were performed in triplicate, and each compound was tested for both apical to basolateral and basolateral to apical transport. The plates were incubated for 2 hours on a Lab-Line Instruments Titer Orbital Shaker (VWR, West Chester, PA) at 50 rpm and 37° C. with 5% CO2. All culture plates were removed from the incubator, 50 μL of media were removed from the apical and basolateral portion of each well, and added to 150 μL of 1 μM labetalol in 2:1 acetonitrile (ACN): H2O, v/v.
The plates were read using a Molecular Devices (Sunnyvale, CA) Gemini Fluorometer to evaluate the lucifer yellow concentrations at excitation/emission wavelengths of 425/535 nm. These values were accepted when found to be below 2% for apical to basolateral and 5% basolateral to apical flux across the MDR1-transfected LLC-PK1 or BCRP-transfected MDCKII cell monolayers. The plates were sealed, and the contents of each well analyzed by LC MS/MS. The compound concentrations were determined from the ratio of the peak areas of the compound to the internal standard (labetalol) in comparison to the dosing solution.
(§3) A MDS Sciex API 4000 (Applied Biosystems, Foster City, CA) mass spectrometer was used for detection of the analytes in the ion spray positive mode. Analyte responses were measured by multiple reaction monitoring (“MRM”) of transitions unique to each compound (the protonated precursor ion and selected product ions for each test article and m/z 329 to m/z 162 for labetalol, the internal standard.
(§4) The total run time, including re-equilibration, for a single injection was 1.2 minutes. […] The total run time, including re-equilibration, for a single injection was 0.61 minutes.
(§5) An efflux ratio is calculated from the mean apical to basolateral (A-B) Papp data and basolateral to apical (B-A) Papp data: Efflux ratio=Papp(B−A)/Papp(A−B)

[6] = molecular target: BCRP (Homo sapiens (Human), UniProt Q9UNQ0); test: BCRP transfected MDCKII canine Mdr1 knockout permeability/efflux, Assay 9; settings: dog
Protocol: BCRP transfected MDCKII cells (Assay 8) and BCRP transfected MDCKII canine Mdr1 knockout cells (Assay 9) were cultured and plated according to manufacturer's recommendations.
as §1, §2
The plates were read using a Molecular Devices (Sunnyvale, CA) Gemini Fluorometer to evaluate the lucifer yellow concentrations at excitation/emission wavelengths of 425/535 nm. […] The plates were sealed, and the contents of each well analyzed by LC MS/MS. The compound concentrations were determined from the ratio of the peak areas of the compound to the internal standard (labetalol) in comparison to the dosing solution.
as §3, §4, §5

[7] = molecular target: ErbB2 with Exon 20 YVMA insertion (HER2-YVMA) (Homo sapiens (Human), UniProt P04626, INS775YVMA); test: Cellular phosphorylation assay, constitutive ErbB2 phosphorylation (Y1196) in engineered NIH 3T3 cells, Assay 4; format: cell-based
In short: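 Engineered NIH 3T3 cells expressing HER2-YVMA treated with compounds 1 h at 37 °C, then formaldehyde-fixed and methanol-permeabilized. pErbB2 Y1196 detected by in-cell infrared immunofluorescence, normalized to GAPDH. IC50 from the normalized curves.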

[8] = Assay 9 Pe Ratio, efflux ratio Papp(B-A)/Papp(A-B), BCRP transfected MDCKII canine Mdr1 knockout

Sequence of EGFR (P00533 25-1210): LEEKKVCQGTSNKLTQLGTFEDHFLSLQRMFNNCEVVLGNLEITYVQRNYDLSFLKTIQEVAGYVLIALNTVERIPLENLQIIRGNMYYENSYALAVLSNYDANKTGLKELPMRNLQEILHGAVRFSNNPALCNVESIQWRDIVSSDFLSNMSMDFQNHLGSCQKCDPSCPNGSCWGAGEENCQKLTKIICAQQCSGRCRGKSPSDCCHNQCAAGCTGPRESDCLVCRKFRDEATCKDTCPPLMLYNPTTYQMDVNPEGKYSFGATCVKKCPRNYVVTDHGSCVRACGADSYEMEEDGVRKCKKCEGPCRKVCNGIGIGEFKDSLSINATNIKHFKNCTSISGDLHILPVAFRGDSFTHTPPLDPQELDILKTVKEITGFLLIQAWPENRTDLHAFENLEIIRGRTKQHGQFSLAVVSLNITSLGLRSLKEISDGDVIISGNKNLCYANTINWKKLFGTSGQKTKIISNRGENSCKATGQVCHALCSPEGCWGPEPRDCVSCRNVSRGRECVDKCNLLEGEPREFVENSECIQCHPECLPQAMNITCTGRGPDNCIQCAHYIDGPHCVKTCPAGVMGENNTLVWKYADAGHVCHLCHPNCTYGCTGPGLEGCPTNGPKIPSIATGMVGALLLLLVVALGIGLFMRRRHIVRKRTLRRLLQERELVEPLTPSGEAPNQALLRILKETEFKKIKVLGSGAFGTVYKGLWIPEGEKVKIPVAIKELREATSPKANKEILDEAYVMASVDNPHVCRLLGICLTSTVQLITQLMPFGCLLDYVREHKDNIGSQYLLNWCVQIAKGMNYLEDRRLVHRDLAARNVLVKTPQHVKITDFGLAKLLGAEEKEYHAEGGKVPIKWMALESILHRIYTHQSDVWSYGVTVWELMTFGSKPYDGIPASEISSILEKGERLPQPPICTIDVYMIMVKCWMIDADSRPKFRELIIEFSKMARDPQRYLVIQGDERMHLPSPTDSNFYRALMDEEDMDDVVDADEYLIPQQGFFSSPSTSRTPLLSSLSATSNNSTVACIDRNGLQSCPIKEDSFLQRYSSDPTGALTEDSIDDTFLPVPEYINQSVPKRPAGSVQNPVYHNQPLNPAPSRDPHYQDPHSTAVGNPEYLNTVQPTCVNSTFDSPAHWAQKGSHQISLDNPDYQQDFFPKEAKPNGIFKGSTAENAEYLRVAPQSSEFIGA
Sequence of EGFR wild type (EGFR WT) (P00533 25-1210): as above
Sequence of ErbB2 with Exon 20 YVMA insertion (HER2-YVMA) (P04626 other isoform, or with tags, fused parts or gaps ins YVMA behind 775): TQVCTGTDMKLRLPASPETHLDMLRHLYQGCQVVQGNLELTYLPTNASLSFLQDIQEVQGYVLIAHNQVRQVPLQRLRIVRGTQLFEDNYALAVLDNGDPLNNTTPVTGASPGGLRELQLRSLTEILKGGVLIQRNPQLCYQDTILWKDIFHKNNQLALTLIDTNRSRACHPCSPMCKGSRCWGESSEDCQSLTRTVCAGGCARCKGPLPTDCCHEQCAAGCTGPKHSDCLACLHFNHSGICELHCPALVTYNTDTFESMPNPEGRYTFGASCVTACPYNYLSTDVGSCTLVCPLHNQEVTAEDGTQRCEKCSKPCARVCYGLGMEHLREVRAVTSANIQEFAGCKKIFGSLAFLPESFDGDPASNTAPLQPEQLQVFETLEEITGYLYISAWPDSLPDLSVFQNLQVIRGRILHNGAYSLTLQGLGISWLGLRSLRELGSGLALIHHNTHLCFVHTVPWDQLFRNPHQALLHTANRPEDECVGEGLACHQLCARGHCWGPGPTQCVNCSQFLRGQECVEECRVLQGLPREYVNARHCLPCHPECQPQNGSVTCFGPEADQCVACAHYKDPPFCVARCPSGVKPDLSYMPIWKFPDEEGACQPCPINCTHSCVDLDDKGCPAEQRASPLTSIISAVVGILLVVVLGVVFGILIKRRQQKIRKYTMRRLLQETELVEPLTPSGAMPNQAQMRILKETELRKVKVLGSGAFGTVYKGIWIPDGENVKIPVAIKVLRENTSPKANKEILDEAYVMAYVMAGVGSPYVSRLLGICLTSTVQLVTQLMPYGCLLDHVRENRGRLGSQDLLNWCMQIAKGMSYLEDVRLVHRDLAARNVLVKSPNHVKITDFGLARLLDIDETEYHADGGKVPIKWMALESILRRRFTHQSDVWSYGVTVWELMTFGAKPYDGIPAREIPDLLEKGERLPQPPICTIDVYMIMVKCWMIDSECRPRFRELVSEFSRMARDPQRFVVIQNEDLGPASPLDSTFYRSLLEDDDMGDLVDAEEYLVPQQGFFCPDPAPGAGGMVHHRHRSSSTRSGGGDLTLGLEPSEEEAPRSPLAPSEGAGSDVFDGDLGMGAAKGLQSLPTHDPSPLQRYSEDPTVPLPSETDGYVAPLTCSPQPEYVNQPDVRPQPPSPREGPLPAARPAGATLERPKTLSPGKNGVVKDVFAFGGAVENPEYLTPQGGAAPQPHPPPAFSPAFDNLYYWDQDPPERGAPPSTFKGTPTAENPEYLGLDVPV
Sequence of MDR1 (P-gp) (P08183 whole entry): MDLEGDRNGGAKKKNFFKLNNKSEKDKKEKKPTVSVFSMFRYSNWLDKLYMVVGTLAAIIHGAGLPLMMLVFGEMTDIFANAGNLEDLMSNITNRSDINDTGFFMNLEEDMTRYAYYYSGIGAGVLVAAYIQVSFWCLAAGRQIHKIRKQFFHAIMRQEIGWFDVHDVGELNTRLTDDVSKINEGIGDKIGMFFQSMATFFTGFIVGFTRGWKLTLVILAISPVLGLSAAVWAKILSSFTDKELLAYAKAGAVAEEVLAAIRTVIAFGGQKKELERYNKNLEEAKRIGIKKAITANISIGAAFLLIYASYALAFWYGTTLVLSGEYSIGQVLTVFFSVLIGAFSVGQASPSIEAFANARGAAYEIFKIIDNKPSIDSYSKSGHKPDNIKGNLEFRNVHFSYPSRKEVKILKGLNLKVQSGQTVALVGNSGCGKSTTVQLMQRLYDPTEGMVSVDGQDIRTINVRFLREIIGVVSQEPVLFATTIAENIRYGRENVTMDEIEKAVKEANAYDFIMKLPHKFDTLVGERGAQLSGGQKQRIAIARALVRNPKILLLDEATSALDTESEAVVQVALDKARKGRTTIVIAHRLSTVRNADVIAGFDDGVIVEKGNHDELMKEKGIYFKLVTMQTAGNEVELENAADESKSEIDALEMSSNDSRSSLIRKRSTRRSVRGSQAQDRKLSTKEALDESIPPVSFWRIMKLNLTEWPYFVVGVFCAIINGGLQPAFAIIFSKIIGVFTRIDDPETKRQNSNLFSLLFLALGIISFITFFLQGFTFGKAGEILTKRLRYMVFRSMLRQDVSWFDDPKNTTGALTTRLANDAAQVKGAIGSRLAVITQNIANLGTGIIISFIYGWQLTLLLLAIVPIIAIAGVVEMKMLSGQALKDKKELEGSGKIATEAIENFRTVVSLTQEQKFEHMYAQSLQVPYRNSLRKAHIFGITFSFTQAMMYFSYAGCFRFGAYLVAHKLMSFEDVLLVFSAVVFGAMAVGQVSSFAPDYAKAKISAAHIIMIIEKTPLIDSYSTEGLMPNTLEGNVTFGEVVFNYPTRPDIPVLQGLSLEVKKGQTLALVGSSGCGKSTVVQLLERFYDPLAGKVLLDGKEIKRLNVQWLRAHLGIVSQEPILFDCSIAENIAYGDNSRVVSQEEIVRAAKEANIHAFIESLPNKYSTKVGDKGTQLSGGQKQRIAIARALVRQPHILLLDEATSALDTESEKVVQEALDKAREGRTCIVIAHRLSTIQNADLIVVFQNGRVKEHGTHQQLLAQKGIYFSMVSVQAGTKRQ

Cc1cc(Nc2ncnc3cnc(N4CC[C@@H](C(C)(C)O)C4)nc23)ccc1Oc1ccc2c(c1)ncn2C [Example 113, (R)-2-(1-(8-((3-methyl-4-((1-methyl-1H-benzo[d]imidazol-5-yl)oxy)phenyl)amino)pyrimido[5,4-d]pyrimidin-2-yl)pyrrolidin-3-yl)propan-2-ol]
IC50 [1]: 8480 nM | IC50 [2]: ≥ 5000 nM | IC50 ([3]; read-out: Assay 1 IC50): 13.1 nM | IC50 [4]: 23 nM | efflux ratio at 2 h, 1 μM [5]: 0.9 | efflux ratio at 2 h, 1 μM [6, 8]: 11 | IC50 [7]: 9.5 nM

Cn1cnc2cc(Oc3ccc(Nc4ncnc5cnc(N6CCC7COCC76)nc45)cc3Cl)ccc21 (stereo not shown) [Example 114, N-(3-chloro-4-((1-methyl-1H-benzo[d]imidazol-5-yl)oxy)phenyl)-6-(hexahydro-1H-furo[3,4-b]pyrrol-1-yl)pyrimido[5,4-d]pyrimidin-4-amine]
IC50 [1]: 7890 nM | IC50 [2]: ≥ 5000 nM | IC50 ([3]; read-out: Assay 1 IC50): 50.1 nM | IC50 [4]: 96.3 nM | efflux ratio at 2 h, 1 μM [5]: 1.5 | efflux ratio at 2 h, 1 μM [6, 8]: 1.2 | IC50 [7]: 20.1 nM

Cc1c(Oc2ccc3c(c2)ncn3C)ccc(Nc2ncnc3cnc(N(C)[C@H]4C[C@@](C)(O)C4)nc23)c1F [Example 116, (1s,3s)-3-((8-((2-fluoro-3-methyl-4-((1-methyl-1H-benzo[d]imidazol-5-yl)oxy)phenyl)amino)pyrimido[5,4-d]pyrimidin-2-yl)(methyl)amino)-1-methylcyclobutan-1-ol]
IC50 [1]: 1170 nM | IC50 [2]: ≥ 5000 nM | IC50 ([3]; read-out: Assay 1 IC50): 17.3 nM | IC50 [4]: 14.8 nM | efflux ratio at 2 h, 1 μM [5]: 1.3 | efflux ratio at 2 h, 1 μM [6, 8]: 1.8 | IC50 [7]: 27.8 nM

Cc1cc(Nc2ncnc3cnc(N4CCC(C)(O)CC4)nc23)ccc1Oc1ccn2ncnc2c1 [Example 120, 1-(8-((4-([1,2,4]triazolo[1,5-a]pyridin-7-yloxy)-3-methylphenyl)amino)pyrimido[5,4-d]pyrimidin-2-yl)-4-methylpiperidin-4-ol]
IC50 [1]: 5340 nM | IC50 [2]: ≥ 5000 nM | IC50 ([3]; read-out: Assay 1 IC50): 20.6 nM | IC50 [4]: 19 nM | efflux ratio at 2 h, 1 μM [5]: 1.3 | efflux ratio at 2 h, 1 μM [6, 8]: 7.8 | IC50 [7]: 49.4 nM

CC(C)(O)[C@@H]1CCN(c2ncc3ncnc(Nc4ccc(Oc5ccn6ncnc6c5)c(Cl)c4)c3n2)C1 [Example 122, (R)-2-(1-(8-((4-([1,2,4]triazolo[1,5-a]pyridin-7-yloxy)-3-chlorophenyl)amino)pyrimido[5,4-d]pyrimidin-2-yl)pyrrolidin-3-yl)propan-2-ol]
IC50 [1]: 953 nM | IC50 [2]: ≥ 5000 nM | IC50 ([3]; read-out: Assay 1 IC50): 15.2 nM | IC50 [4]: 22.7 nM | efflux ratio at 2 h, 1 μM [5]: 1.7 | efflux ratio at 2 h, 1 μM [6, 8]: 7.3 | IC50 [7]: 19.7 nM

CN(c1ncc2ncnc(Nc3ccc(Oc4ccc5c(c4)ncn5C)c(Cl)c3)c2n1)C1COC1 [Example 123, N8-(3-chloro-4-((1-methyl-1H-benzo[d]imidazol-5-yl)oxy)phenyl)-N2-methyl-N2-(oxetan-3-yl)pyrimido[5,4-d]pyrimidine-2,8-diamine]
IC50 [1]: ≥ 10000 nM | IC50 [2]: ≥ 5000 nM | IC50 ([3]; read-out: Assay 1 IC50): 26.5 nM | IC50 [4]: 118 nM | efflux ratio at 2 h, 1 μM [5]: 1.6 | efflux ratio at 2 h, 1 μM [6, 8]: 2.4 | IC50 [7]: 13.2 nM

Cc1cc(Nc2ncnc3cnc(N4CC[C@@H](C(C)(C)O)C4)nc23)ccc1Oc1ccn2ncnc2c1 [Example 124, (R)-2-(1-(8-((4-([1,2,4]triazolo[1,5-a]pyridin-7-yloxy)-3-methylphenyl)amino)pyrimido[5,4-d]pyrimidin-2-yl)pyrrolidin-3-yl)propan-2-ol]
IC50 [1]: 2750 nM | IC50 [2]: ≥ 5000 nM | IC50 ([3]; read-out: Assay 1 IC50): 16 nM | IC50 [4]: 14.3 nM | efflux ratio at 2 h, 1 μM [5]: 1.4 | efflux ratio at 2 h, 1 μM [6, 8]: 10.3 | IC50 [7]: 64.8 nM

Cc1cc(Nc2ncnc3cnc(N(C)[C@@H]4CCOC4)nc23)ccc1Oc1ccc2c(c1)ncn2C [Example 128, (R)—N2-methyl-N8-(3-methyl-4-((1-methyl-1H-benzo[d]imidazol-5-yl)oxy)phenyl)-N2-(tetrahydrofuran-3-yl)pyrimido[5,4-d]pyrimidine-2,8-diamine]
IC50 [1]: 3270 nM | IC50 [2]: ≥ 5000 nM | IC50 ([3]; read-out: Assay 1 IC50): 21 nM | IC50 [4]: 20 nM | efflux ratio at 2 h, 1 μM [5]: 1.6 | efflux ratio at 2 h, 1 μM [6, 8]: 1.4 | IC50 [7]: 36.3 nM

Cc1cc(Nc2ncnc3cnc(N4CCC5COCC54)nc23)ccc1Oc1ccc2c(c1)ncn2C (stereo not shown) [Example 129, 6-(hexahydro-1H-furo[3,4-b]pyrrol-1-yl)-N-(3-methyl-4-((1-methyl-1H-benzo[d]imidazol-5-yl)oxy)phenyl)pyrimido[5,4-d]pyrimidin-4-amine]
IC50 [1]: 865 nM | IC50 [2]: ≥ 5000 nM | IC50 ([3]; read-out: Assay 1 IC50): 12.4 nM | IC50 [4]: 15 nM | efflux ratio at 2 h, 1 μM [5]: 1.4 | efflux ratio at 2 h, 1 μM [6, 8]: 1.7 | IC50 [7]: 7.6 nM

FC(F)(F)[C@@H]1CN(c2ncc3ncnc(Nc4ccc(Oc5ccn6ncnc6c5)c(Cl)c4)c3n2)CCN1 [Example 130, (S)—N-(4-([1,2,4]triazolo[1,5-a]pyridin-7-yloxy)-3-chlorophenyl)-6-(3-(trifluoromethyl)piperazin-1-yl)pyrimido[5,4-d]pyrimidin-4-amine]
IC50 [1]: 2560 nM | IC50 [2]: ≥ 5000 nM | IC50 ([3]; read-out: Assay 1 IC50): 41.7 nM | IC50 [4]: 36.3 nM | efflux ratio at 2 h, 1 μM [5]: 1.3 | efflux ratio at 2 h, 1 μM [6, 8]: 1 | IC50 [7]: 43.3 nM

Cc1cc(Nc2ncnc3cnc(N(C)[C@H]4CCOC4)nc23)ccc1Oc1ccc2c(c1)ncn2C [Example 131, (S)—N2-methyl-N8-(3-methyl-4-((1-methyl-1H-benzo[d]imidazol-5-yl)oxy)phenyl)-N2-(tetrahydrofuran-3-yl)pyrimido[5,4-d]pyrimidine-2,8-diamine]
IC50 [1]: 3270 nM | IC50 [2]: ≥ 5000 nM | IC50 ([3]; read-out: Assay 1 IC50): 21 nM | IC50 [4]: 20 nM | efflux ratio at 2 h, 1 μM [5]: 1.6 | efflux ratio at 2 h, 1 μM [6, 8]: 1.4 | IC50 [7]: 36.3 nM

Clc1cc(Nc2ncnc3cnc(N4CCC45COC5)nc23)ccc1Oc1ccn2ncnc2c1 [Example 132, N-(4-([1,2,4]triazolo[1,5-a]pyridin-7-yloxy)-3-chlorophenyl)-6-(6-oxa-1-azaspiro[3.3]heptan-1-yl)pyrimido[5,4-d]pyrimidin-4-amine]
IC50 [1]: 801 nM | IC50 [2]: ≥ 5000 nM | IC50 ([3]; read-out: Assay 1 IC50): 5.8 nM | IC50 [4]: 5.6 nM | efflux ratio at 2 h, 1 μM [5]: 1.1 | efflux ratio at 2 h, 1 μM [6]: 1.8 | IC50 [7]: 19.9 nM

Cn1cnc2cc(Oc3ccc(Nc4ncnc5cnc(N6CCC67COC7)nc45)cc3Cl)ccc21.O=C(O)C(F)(F)F [Example 145, N-(3-chloro-4-((1-methyl-1H-benzo[d]imidazol-5-yl)oxy)phenyl)-6-(6-oxa-1-azaspiro[3.3]heptan-1-yl)pyrimido[5,4-d]pyrimidin-4-amine]
IC50 [1]: 896 nM | IC50 [2]: ≥ 5000 nM | IC50 ([3]; Assay 1 IC50 (nM)): 19.3 nM | IC50 [4]: 19.6 nM | efflux ratio at 2 h, 1 μM [5]: 0.7 | efflux ratio at 2 h, 1 μM [6]: 2.1 | IC50 [7]: 20.2 nM

Cn1cnc2cc(Oc3ccc(Nc4ncnc5cnc(N6CCN[C@@H](C(F)(F)F)C6)nc45)cc3Cl)ccc21.O=C(O)C(F)(F)F [Example 146, (R)—N-(3-chloro-4-((1-methyl-1H-benzo[d]imidazol-5-yl)oxy)phenyl)-6-(3-(trifluoromethyl)piperazin-1-yl)pyrimido[5,4-d]pyrimidin-4-amine 2,2,2-trifluoroacetate]
IC50 [1]: 3720 nM | IC50 [2]: ≥ 5000 nM | IC50 ([3]; Assay 1 IC50 (nM)): 54.1 nM | IC50 [4]: 58.2 nM | efflux ratio at 2 h, 1 μM [5]: 0.8 | efflux ratio at 2 h, 1 μM [6]: 5.1 | IC50 [7]: 35.5 nM

Cc1c(Oc2ccc3c(c2)ncn3C)ccc(Nc2ncnc3cnc(N4CCC[C@](C)(O)C4)nc23)c1F [Example 147, (S)-1-(8-((2-fluoro-3-methyl-4-((1-methyl-1H-benzo[d]imidazol-5-yl)oxy)phenyl)amino)pyrimido[5,4-d]pyrimidin-2-yl)-3-methylpiperidin-3-ol]
IC50 [1]: 2650 nM | IC50 [2]: ≥ 5000 nM | IC50 ([3]; read-out: Assay 1 IC50): 74.2 nM | IC50 [4]: 45.5 nM | efflux ratio at 2 h, 1 μM [5]: 1 | efflux ratio at 2 h, 1 μM [6, 8]: 2.7 | IC50 [7]: 32.6 nM

Cc1cc(Nc2ncnc3cnc(N(C)C4CCOCC4)nc23)ccc1Oc1ccc2c(c1)ncn2C [Example 153, N2-methyl-N8-(3-methyl-4-((1-methyl-1H-benzo[d]imidazol-5-yl)oxy)phenyl)-N2-(tetrahydro-2H-pyran-4-yl)pyrimido[5,4-d]pyrimidine-2,8-diamine]
IC50 [1]: 5550 nM | IC50 [2]: ≥ 5000 nM | IC50 ([3]; read-out: Assay 1 IC50): 7.6 nM | IC50 [4]: 16.3 nM | efflux ratio at 2 h, 1 μM [5]: 1.5 | efflux ratio at 2 h, 1 μM [6, 8]: 1.4 | IC50 [7]: 25 nM
